# Source: PubChem BioAssay (NCI)
#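 A five-concentration, 48-hour dose response in 96-well plates underlies each endpoint, interpolated linearly between surrounding concentrations. The concentration for 50% growth inhibition is given as GI50. The concentration for full growth arrest is given as TGI.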
# Key:
# Assay in all cases: NCI tumour cell line growth inhibition, 48 h
# CAKI-1 renal = system: CAKI-1 renal
# CCRF-CEM leukemia = system: CCRF-CEM leukemia
# HL-60(TB) leukemia = system: HL-60(TB) leukemia
# K-562 leukemia = system: K-562 leukemia
# LOX IMVI melanoma = system: LOX IMVI melanoma
# MALME-3M melanoma = system: MALME-3M melanoma
# OVCAR-5 ovarian = system: OVCAR-5 ovarian
# UACC-257 melanoma = system: UACC-257 melanoma
# PC-3 prostate = system: PC-3 prostate
# T-47D breast = system: T-47D breast
Structure (SMILES),TGI (CAKI-1 renal),TGI (CCRF-CEM leukemia),TGI (HL-60(TB) leukemia),TGI (K-562 leukemia),TGI (LOX IMVI melanoma),TGI (MALME-3M melanoma),TGI (OVCAR-5 ovarian),TGI (UACC-257 melanoma),GI50 (CAKI-1 renal),GI50 (CCRF-CEM leukemia),GI50 (K-562 leukemia),GI50 (LOX IMVI melanoma),GI50 (MALME-3M melanoma),GI50 (OVCAR-5 ovarian),GI50 (PC-3 prostate),TGI (PC-3 prostate),GI50 (T-47D breast),TGI (T-47D breast),GI50 (UACC-257 melanoma),GI50 (HL-60(TB) leukemia)
CCCCCCCC(=O)NCC(O)CNC(=O)CCCCCCC,> 100 µM,> 100 µM,> 100 µM,> 100 µM,> 100 µM,> 100 µM,> 100 µM,> 100 µM,,,,,,,,,,,,
Cc1ccccc1C1=[N+]([O-])c2ccccc2C1=O,,54.5 µM,28.9 µM,45.7 µM,35 µM,33.2 µM,43.1 µM,27.9 µM,,,,,,,,,,,,
CC(=O)CCc1ccc(OC2OC(COC(=O)c3cc(O)c(O)c(O)c3)C(O)C(O)C2OC(=O)/C=C/c2ccccc2)cc1 (stereo not given),> 100 µM,52.2 µM,,65.5 µM,41.4 µM,46.2 µM,32.1 µM,,29.7 µM,20.7 µM,22.6 µM,17.1 µM,26.8 µM,15.6 µM,33.4 µM,> 100 µM,26.1 µM,> 100 µM,,
O=C1c2cccnc2C(=O)C2C3C=CC(C3)C12 (stereo not given),31.9 µM,,,34.9 µM,15.7 µM,29.5 µM,35.8 µM,26.2 µM,,,,,,,,21.8 µM,,13.2 µM,,
CCOC(=O)c1c(-c2ccccc2)oc(-c2ccccc2)c1C(=O)OCC,,> 100 µM,> 100 µM,> 100 µM,> 100 µM,> 100 µM,> 100 µM,> 100 µM,,,,,,,,,,,,
CC(=O)Oc1cc(C)c2c(c1OC(C)=O)CC1(O2)[C@@H](C)CCC2[C@@]3(C)CC[C@H](OC(C)=O)C(C)(C)C3CC[C@]21C (stereo not given in full),4.3 µM,,,,14 µM,,17.4 µM,21.8 µM,,,,,,,,,,,,
O=C(O)C1=CCCc2ccc3ccccc3c21,,,,> 100 µM,> 100 µM,> 100 µM,> 100 µM,> 100 µM,,,,,,,,,,,,
CC(C)(O)C#Cc1ccc(/C=C/C(=O)c2ccccc2)s1,30.6 µM,64.9 µM,,56.3 µM,26.7 µM,36.1 µM,32 µM,32.4 µM,16.9 µM,13.6 µM,16.5 µM,13.8 µM,16.4 µM,16.5 µM,13.6 µM,29.7 µM,14.5 µM,67.9 µM,18.4 µM,
CSc1cccc(-n2c3nc(=O)n(C)c(=O)c-3nc3ccccc32)c1,19.7 µM,42.7 µM,16.7 µM,32.5 µM,,11.4 µM,32 µM,,,,,,,,,,,,,
COc1ccc(-n2cc(-c3cc(OC)c(OC)c(OC)c3)nc2SCc2ccccc2)cc1,> 100 µM,> 100 µM,> 100 µM,> 100 µM,> 100 µM,> 100 µM,> 100 µM,,> 100 µM,3.63 µM,9.43 µM,74.7 µM,> 100 µM,> 100 µM,8.7 µM,> 100 µM,7.89 µM,> 100 µM,,10 µM
CC(=O)N1c2ccccc2C2=CC3C4C(=O)N(c5ccccc5)C(=O)C4C21C1C(=O)N(c2ccccc2)C(=O)C31 (stereo not given),> 100 µM,> 100 µM,58.8 µM,> 100 µM,> 100 µM,> 100 µM,> 100 µM,> 100 µM,,,,,,,,,,,,
